Assay results published in patent US7741325B2, “Benzo[b]chromeno-naphthyridin-7-one and pyrano[2′,3′:7,8]quino[2,3-b]quinoxalin-7-one compounds” (priority 2004, dated 2010).

Experiments:
KB-3-1 = test: In vitro cytotoxicity, tetrazolium microculture assay, KB-3-1; format: cell-based; conditions: 96 h; KB-3-1 human epidermoid carcinoma, incubated for 4 days; read-out: IC50, the concentration of cytotoxic compound that inhibits the proliferation of the treated cells by 50%
Description: (§1) Two cell lines were used: • 1 murine leukaemia, L1210, • 1 human epidermoid carcinoma: KB-3-1
(§2) The cells are cultured in RPMI 1640 complete culture medium comprising 10% fcetal calf serum, 2 mM glutamine, 50 units/ml of penicillin, 50 μg/ml of streptomycin and 10 mM Hepes, pH 7.4. The cells are distributed on microplates and are exposed to the cytotoxic compounds. The cells are then incubated for 2 days (L1210) or 4 days (KB-3-1) in an incubator at 37° C. in the presence of 5% CO2. The number of viable cells is then quantified by a colorimetric assay, the tetrazolium microculture assay (Cancer Res. 1987, 47, 939-942).
(§3) The results are expressed as IC50, the concentration of cytotoxic compound that inhibits the proliferation of the treated cells by 50%.

L1210 = test: In vitro cytotoxicity, tetrazolium microculture assay, L1210; format: cell-based; conditions: Mus musculus, 48 h; L1210 murine leukaemia, incubated for 2 days; read-out: IC50, the concentration of cytotoxic compound that inhibits the proliferation of the treated cells by 50%
Description: as §1, §2, §3

SMILES	melting point	IC50 (KB-3-1)	IC50 (L1210)
COc1cc2c(c3c1c(=O)c1cc4ccccc4nc1n3C)[C@H]1OC(=O)O[C@H]1C(C)(C)O2 (racemic) [Example 5, (±)-cis-7-Methoxy-4,4,15-trimethyl-15,15c-dihydro-4H-benzo[b][1,3]-dioxolo[4′,5′:3,4]chromeno[6,5-g][1,8]naphthyridin-2,8[3aH]-dione]	234 °C	–	–
COc1cc2c(c3c1c(=O)c1cc4ccccc4nc1n3C)[C@@H](OC(C)=O)[C@@H](OC(C)=O)C(C)(C)O2 (racemic) [Example 4, (±)-cis-1,2-Diacetoxy-6methoxy-3,3,14-trimethyl-1,2,3,14-tetrahydro-7H-benzo[b]chromeno[6,5-g][1,8]naphthyridin-7-one]	244 °C	37 nM	320 nM

Continued, in another order:

melting point	SMILES	IC50 (KB-3-1)	IC50 (L1210)
298 °C	COc1cc2c(c3c1c(=O)c1cc4ccccc4nc1n3C)[C@@H](O)[C@@H](O)C(C)(C)O2 (racemic) [Example 3, (±)-cis-1,2-Dihydroxy-6-methoxy-3,3,14-trimethyl-1,2,3,14-tetrahydro-7H-benzo[b]chromeno[6,5-g][1,8]naphthyridin-7-one]	–	–
278 °C	Cn1c2nc3ccccc3cc2c(=O)c2c(O)cc3c(c21)C=CC(C)(C)O3 [Example 1, 6-Hydroxy-3,3,14-trimethyl-3,14-dihydro-7H-benzo-[b]chromeno-[6,5-g][1,8]naphthyridin-7-one]	–	–
270 °C	COc1cc2c(c3c1c(=O)c1cc4ccccc4nc1n3C)C=CC(C)(C)O2 [Example 2, 6-Methoxy-3,3,14-trimethyl-3,14-dihydro-7H-benzo[b]chromeno-[6,5-g][1,8]naphthyridin-7-one]	–	–
